# Test results reported in patent US8420677B2, “Use of 3,3′-diindolylmethane” (priority 2008, dated 2013).
# Tested on: D257A mice
# Assay: Auditory brainstem response (ABR) hearing function test in D257A mice fed the compounds
# Format: in vivo
# Excerpt: The test system was D257A−/− (D257A) mice that express a proofreading-deficient version of the mitochondrial DNA polymerase γ (POLG). These mice display features of accelerated aging including age related hearing loss (presbycusis). Hearing loss can be monitored by an elevation in auditory-evoked brainstem response (Kujoth et al., Science 309, 481-484, 2005).
# Heterozygous D257A (−1+) mice were bred to generate homozogous D257A (−/−) mice, denoted D257A hereafter. Animals were identified with specific numbering and ear clippings. D257A mice were placed in various dietary regimens following PCR based genotyping and weaning at 3 weeks of age. Mice received a diet based on AIN-93M maintenance purified diet (TestDiet, Richmond, USA), with neither no supplementation (Control group), or supplementation with DIM (40 mg/kg, BioResponse LLC Boulder, Colo.), (−)-epigallocatechin gallate, or (EGCG) (300 mg/kg, DSM Nutritional Products, Switzerland).
# Hearing function was tested in 9 month-old D257A mice receiving the various compounds. Auditory brainstem responses (ABRs) were measured with a tone burst stimulus (8, 16 and 32 kHz) using an ABR recording system (Intelligent Hearing System, Miami Fla.). Animals were anesthetized with a mixture of xylazine hydrochloride (10 mg/kg, i.m.) and ketamine hydrochloride (40 mg/kg, i.m.), and needle electrodes were placed subcutaneously at the vertex (active electrode), beneath the pinna of the measured ear (reference electrode), and beneath the opposite ear (ground). The stimulus duration, presentation rate, and rise/fall time was 3 ms, 19.3/s, and 1 ms respectively. Responses of 1024 sweeps were averaged at each intensity level (5 dB steps) to access the hearing threshold. The hearing threshold was defined as the lowest intensity level at which a clear reproducible waveform was visible in the trace. Means of ABR thresholds were compared at 8, 16 and 32 kHz.
structure (smiles),measurement,setting,value
"c1ccc2c(Cc3c[nH]c4ccccc34)c[nH]c2c1 [DIM, 3,3′-diindolylmethane]",hearing threshold (auditory-evoked brain stem response threshold),"8 kHz, 9 month-old D257A mice, DIM 40 mg/kg in diet, control approximately 40 dB",approximately 10 dB
same,deaf mice (no auditory-evoked brainstem response),"8 kHz, 9 month-old D257A mice, diet supplementation from weaning (DIM 40 mg/kg, EGCG 300 mg/kg), control 3 out of 8 deaf",no deaf mice
same,percentage of deaf mice,"32 kH, 9 month-old D257A mice, compared to the control group and the other tested compounds",significantly lower
same,effect on age related hearing loss,"supplementation from early age on, D257A mice",protective effect
